Results published in patent US20260070889A1, “5-PYRIDINE-1H-INDAZOLE COMPOUND, PHARMACEUTICAL COMPOSITION, AND USE” (CHINA PHARMACEUTICAL UNIVERSITY, priority 2022, published 2026).
Where two headings read alike, the source gives them in different places.

What was measured:
CLK1 = CLK1 (Homo sapiens, UniProt P49759); experiment: In vitro kinase inhibition, ADP-Glo enzyme activity assay; type: biochemical; conditions: read-out: Enzymatic activity (IC50) CLK1
Description: (§1) (1) The positive drug was diluted in a 4-fold gradient with DMSO in a dilution plate, with the final initial concentrations of the compound being 1 & 0.02 & 0.1 μM.
(§2) (2) The compound was diluted 50-fold into the 1× kinase reaction buffer and oscillated on an oscillator for 20 min.
(§3) (3) The 2× kinase was prepared using the 1× enzyme reaction buffer.
(§4) (4) 2 μL of the kinase was added per well to the reaction plate.
(§5) (5) 1 μL of the compound diluted in the buffer was added to each well. The plate was sealed with a plate-sealing film, centrifuged at 1000 rpm for 60 s, and incubated at 25° C. for 10 min.
(§6) (6) 4× ATP & sub mixture was prepared using the 1× enzyme reaction buffer, and 1 μL of the 4× ATP & sub mixture was added to the reaction plate.
(§7) (7) The plate was sealed with a plate-sealing film, centrifuged at 1000 rpm for 60 s, and incubated at 25° C. for 60 min.
(§8) (8) 4 μL of ADP-Glo was transferred to the 384 reaction plate, and the plate was centrifuged at 1000 rpm for 1 min and incubated at 25° C. for 40 min.
(§9) (9) 8 μL of Detection solution was transferred to the 384 reaction plate, and the plate was centrifuged at 1000 rpm for 1 min and incubated at 25° C. for 40 min.
(§10) (10) The RLU (relative luminescence unit) signal was read using a BMG multifunctional microplate reader, and the signal intensity was used to characterize the degree of the kinase activity.
(§11) • (1) the ratio of each well was calculated; • (2) the inhibition rate was calculated as follows:
(§12) compound inhibition rate (% inh)=100%−(compound−positive control)/(negative control−positive control)×100% • (3) the IC50 was calculated, and the inhibition curves of the compounds were plotted: • the following nonlinear fitting formula was used to obtain the IC50 (half maximal inhibitory concentration) of the compounds: Graphpad 7.0 software was used for data analysis.
(§13) [formula] • X: log value of the concentration of the compound, Y: inhibition rate (% inhibition).

CLK2 = CLK2 (Homo sapiens, UniProt P49760); experiment: as above; type: biochemical
Description: as §1, §2, §3, §4, §5, §6, §7, §8, §9, §10, §11, §12, §13

CLK3 = CLK3 (Homo sapiens, UniProt P49761); experiment: as above; type: biochemical
Description: as §1, §2, §3, §4, §5, §6, §7, §8, §9, §10, §11, §12, §13

CLK4 = CLK4 (Homo sapiens, UniProt Q9HAZ1); experiment: as above; type: biochemical; conditions: read-out: Enzymatic activity (IC50) CLK4
Description: as §1, §2, §3, §4, §5, §6, §7, §8, §9, §10, §11, §12, §13

DYRK1A = DYRK1A (Homo sapiens, UniProt Q13627); experiment: as above; type: biochemical
Description: as §1, §2, §3, §4, §5, §6, §7, §8, §9, §10, §11, §12, §13

ACLT model rats = experiment: In vivo pharmacodynamics in osteoarthritis rats, RT-qPCR of cartilage; design: species or system rat; conditions: for expression of ADAMTS5 in cartilage (RT-qPCR) / expression of IHH in cartilage (RT-qPCR) / expression of MMP3 in cartilage (RT-qPCR) / expression of MMP13 in cartilage (RT-qPCR): week 5, versus model group
Description: 1. 40 rats were evenly divided into 4 groups, namely, Control (normal rats injected with physiological saline into the joint cavity), Model (ACLT Model rats injected with physiological saline into the joint cavity), low-dose administration group (ACLT Model rats injected with LH020 (1.5 μg/kg) into the joint cavity), and high-dose administration group (ACLT Model rats injected with LH020 (6 μg/kg) into the joint cavity).
2. Knee osteoarthritis was induced by resection of anterior cruciate ligament of the rats (ACLT model).
3. The first week after surgery, physiological saline or LH-020 (1.5 μg/kg. 6 μg/kg) was injected into the joint cavity.
4. Week 5 after administration, cartilage was collected, and the expression of cartilage-associated proteases (MMP3, MMP13, ADAMTS5, IHH, etc.) was detected by RT-qPCR.

[1] = related art statement; cited from earlier work
[2] = read-out: Enzymatic activity (IC50) CLK2
[3] = read-out: Enzymatic activity (IC50) CLK3
[4] = read-out: Enzymatic activity (IC50) DYRK1A
[5] = high-dose group 6 μg/kg into the joint cavity, effect superior to low-dose group
[6] = low-dose group 1.5 μg/kg into the joint cavity

Chain of CLK3 (P49761 whole entry): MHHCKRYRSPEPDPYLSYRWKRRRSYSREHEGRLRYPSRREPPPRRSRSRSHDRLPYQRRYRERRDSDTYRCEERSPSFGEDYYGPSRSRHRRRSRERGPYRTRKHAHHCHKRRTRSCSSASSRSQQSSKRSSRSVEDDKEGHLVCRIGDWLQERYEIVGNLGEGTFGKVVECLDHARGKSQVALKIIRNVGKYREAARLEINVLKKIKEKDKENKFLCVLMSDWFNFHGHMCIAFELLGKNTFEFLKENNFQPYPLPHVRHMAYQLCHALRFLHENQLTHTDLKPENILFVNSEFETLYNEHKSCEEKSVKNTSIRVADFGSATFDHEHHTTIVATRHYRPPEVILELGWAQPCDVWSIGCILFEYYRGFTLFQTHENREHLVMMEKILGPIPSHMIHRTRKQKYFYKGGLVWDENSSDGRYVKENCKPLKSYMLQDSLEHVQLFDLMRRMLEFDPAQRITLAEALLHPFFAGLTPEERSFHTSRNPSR
Chain of CLK4 (Q9HAZ1 whole entry): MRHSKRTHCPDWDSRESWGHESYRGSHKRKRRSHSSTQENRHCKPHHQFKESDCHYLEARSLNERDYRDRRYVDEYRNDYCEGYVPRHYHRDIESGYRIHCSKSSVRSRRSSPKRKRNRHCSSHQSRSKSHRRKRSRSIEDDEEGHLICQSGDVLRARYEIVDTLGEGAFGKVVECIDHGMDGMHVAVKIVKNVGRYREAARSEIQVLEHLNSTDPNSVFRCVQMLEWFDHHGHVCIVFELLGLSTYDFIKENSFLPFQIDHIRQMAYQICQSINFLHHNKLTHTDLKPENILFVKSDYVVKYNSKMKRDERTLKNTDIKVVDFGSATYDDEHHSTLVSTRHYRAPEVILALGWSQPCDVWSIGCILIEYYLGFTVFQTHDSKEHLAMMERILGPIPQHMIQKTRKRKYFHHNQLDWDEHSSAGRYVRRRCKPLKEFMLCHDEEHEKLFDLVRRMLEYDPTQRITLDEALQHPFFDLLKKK
Chain of CLK2 (P49760 whole entry): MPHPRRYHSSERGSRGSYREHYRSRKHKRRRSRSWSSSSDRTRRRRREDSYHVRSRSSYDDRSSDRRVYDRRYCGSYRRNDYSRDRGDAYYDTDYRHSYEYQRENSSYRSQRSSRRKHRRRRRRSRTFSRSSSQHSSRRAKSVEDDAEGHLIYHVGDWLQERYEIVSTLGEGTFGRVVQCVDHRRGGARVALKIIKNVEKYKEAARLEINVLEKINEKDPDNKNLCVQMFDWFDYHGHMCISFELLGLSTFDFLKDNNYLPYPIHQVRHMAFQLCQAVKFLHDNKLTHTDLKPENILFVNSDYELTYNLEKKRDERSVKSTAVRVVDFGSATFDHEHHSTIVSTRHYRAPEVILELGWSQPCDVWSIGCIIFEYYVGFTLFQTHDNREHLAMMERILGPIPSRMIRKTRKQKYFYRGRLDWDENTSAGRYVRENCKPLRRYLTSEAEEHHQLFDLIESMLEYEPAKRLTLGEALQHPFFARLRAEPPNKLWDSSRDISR
Chain of CLK1 (P49759 whole entry): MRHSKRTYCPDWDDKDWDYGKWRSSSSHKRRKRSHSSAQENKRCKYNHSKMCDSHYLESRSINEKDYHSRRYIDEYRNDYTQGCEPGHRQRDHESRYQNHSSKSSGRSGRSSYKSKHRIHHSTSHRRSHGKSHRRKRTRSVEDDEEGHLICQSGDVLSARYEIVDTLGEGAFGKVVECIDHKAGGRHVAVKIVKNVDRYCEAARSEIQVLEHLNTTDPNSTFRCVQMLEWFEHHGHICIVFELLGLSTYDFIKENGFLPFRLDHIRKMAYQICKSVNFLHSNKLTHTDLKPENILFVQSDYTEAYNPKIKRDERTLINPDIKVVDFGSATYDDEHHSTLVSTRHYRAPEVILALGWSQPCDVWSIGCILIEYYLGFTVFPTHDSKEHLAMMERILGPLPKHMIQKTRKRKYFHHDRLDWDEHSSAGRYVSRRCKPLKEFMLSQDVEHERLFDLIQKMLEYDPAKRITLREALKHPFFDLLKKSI

## CC(C)CC(=O)Nc1cncc(-c2ccc3[nH]nc(-c4nc(=O)c5ccccc5[nH]4)c3c2)c1 [LH-001]
CLK1
  IC50: < 10 nM
CLK2; [2]
  IC50: < 10 nM
CLK3; [3]
  IC50: < 10 nM
CLK4
  IC50: 50 to 100 nM
DYRK1A; [4]
  IC50: 10 to 50 nM

## O=C(CC1CC1)Nc1cncc(-c2ccc3[nH]nc(-c4nc(=O)c5ccccc5[nH]4)c3c2)c1 [LH-003]
CLK1
  IC50: < 10 nM
CLK2; [2]
  IC50: < 10 nM
CLK3; [3]
  IC50: < 10 nM
CLK4
  IC50: > 100 nM
DYRK1A; [4]
  IC50: 50 to 100 nM

## O=C(Nc1cncc(-c2ccc3[nH]nc(-c4nc(=O)c5ccccc5[nH]4)c3c2)c1)C1CCCC1 [LH-004]
CLK1
  IC50: < 10 nM
CLK2; [2]
  IC50: 10 to 50 nM
CLK3; [3]
  IC50: 10 to 50 nM
CLK4
  IC50: 50 to 100 nM
DYRK1A; [4]
  IC50: 10 to 50 nM

## O=C(CC1CCCCC1)Nc1cncc(-c2ccc3[nH]nc(-c4nc(=O)c5ccccc5[nH]4)c3c2)c1 [LH-005]
CLK1
  IC50: 50 to 100 nM
CLK2; [2]
  IC50: 10 to 50 nM
CLK3; [3]
  IC50: 50 to 100 nM
CLK4
  IC50: 10 to 50 nM
DYRK1A; [4]
  IC50: 10 to 50 nM

## O=c1nc(-c2n[nH]c3ccc(-c4cncc(NCC5CCCCC5)c4)cc23)[nH]c2ccccc12 [LH-006]
CLK1
  IC50: 10 to 50 nM
CLK2; [2]
  IC50: 10 to 50 nM
CLK3; [3]
  IC50: 50 to 100 nM
CLK4
  IC50: 10 to 50 nM
DYRK1A; [4]
  IC50: 10 to 50 nM

## O=c1nc(-c2n[nH]c3ccc(-c4cncc(CN5CCC(F)(F)C5)c4)cc23)[nH]c2ccccc12 [LH-009]
CLK1
  IC50: < 10 nM
CLK2; [2]
  IC50: < 10 nM
CLK3; [3]
  IC50: < 10 nM
CLK4
  IC50: 10 to 50 nM
DYRK1A; [4]
  IC50: < 10 nM

## O=c1nc(-c2n[nH]c3ccc(-c4cccnc4)cc23)[nH]c2ccccc12 [LH-010]
CLK1
  IC50: 10 to 50 nM
CLK2; [2]
  IC50: < 10 nM
CLK3; [3]
  IC50: 10 to 50 nM
CLK4
  IC50: > 100 nM
DYRK1A; [4]
  IC50: 10 to 50 nM

## CN(C)Cc1cncc(-c2ccc3[nH]nc(-c4nc(=O)c5ccccc5[nH]4)c3c2)c1 [LH-011]
CLK1
  IC50: 50 to 100 nM
CLK2; [2]
  IC50: < 10 nM
CLK3; [3]
  IC50: 50 to 100 nM
CLK4
  IC50: > 100 nM
DYRK1A; [4]
  IC50: 50 to 100 nM

## CC(C)(C)C(=O)Nc1cncc(-c2ccc3[nH]nc(-c4nc(=O)c5ccccc5[nH]4)c3c2)c1 [LH-015]
CLK1
  IC50: 10 to 50 nM
CLK2; [2]
  IC50: < 10 nM
CLK3; [3]
  IC50: 10 to 50 nM
CLK4
  IC50: < 10 nM
DYRK1A; [4]
  IC50: < 10 nM

## O=C(Nc1cncc(-c2ccc3[nH]nc(-c4nc(=O)c5ccccc5[nH]4)c3c2)c1)C1CC(F)(F)C1 [LH-016]
CLK1
  IC50: < 10 nM
CLK2; [2]
  IC50: < 10 nM
CLK3; [3]
  IC50: 10 to 50 nM
CLK4
  IC50: 10 to 50 nM
DYRK1A; [4]
  IC50: 10 to 50 nM

## CCS(=O)(=O)Nc1cncc(-c2ccc3[nH]nc(-c4nc(=O)c5ccccc5[nH]4)c3c2)c1 [LH-017]
CLK1
  IC50: < 10 nM
CLK2; [2]
  IC50: < 10 nM
CLK3; [3]
  IC50: > 100 nM
CLK4
  IC50: 50 to 100 nM
DYRK1A; [4]
  IC50: < 10 nM

## O=c1nc(-c2n[nH]c3ccc(-c4cncc(O)c4)cc23)[nH]c2ccccc12 [LH-018]
CLK1
  IC50: 50 to 100 nM
CLK2; [2]
  IC50: < 10 nM
CLK3; [3]
  IC50: 10 to 50 nM
CLK4
  IC50: < 10 nM
DYRK1A; [4]
  IC50: < 10 nM

## CN1CCN(Cc2cncc(-c3ccc4[nH]nc(-c5nc(=O)c6ccccc6[nH]5)c4c3)c2)CC1 [LH-019]
CLK1
  IC50: < 10 nM
CLK2; [2]
  IC50: < 10 nM
CLK3; [3]
  IC50: > 100 nM
CLK4
  IC50: 50 to 100 nM
DYRK1A; [4]
  IC50: 10 to 50 nM

## CC(C)C[C@H](N)COc1cncc(-c2ccc3[nH]nc(-c4nc(=O)c5ccccc5[nH]4)c3c2)c1 [LH-020]
CLK1
  IC50: < 10 nM
CLK2; [2]
  IC50: < 10 nM
CLK2; read-out: IC50 for CLK2
  IC50: 2 nM
CLK3; CLK3 versus CLK2
  selectivity index for CLK3: 41.5
CLK3; [3]
  IC50: 50 to 100 nM
CLK3; read-out: IC50 for CLK3
  IC50: 81 nM
CLK4
  IC50: 10 to 50 nM
DYRK1A; [4]
  IC50: < 10 nM
DYRK1A; read-out: IC50 for DYRK1A
  IC50: 3 nM
ACLT model rats; ACLT model rats, 1.5 and 6 μg/kg into the joint cavity
  chondroprotective effect: significant chondroprotective effect
ACLT model rats; [5]
  expression of ADAMTS5 in cartilage (RT-qPCR): significantly down-regulate
  expression of IHH in cartilage (RT-qPCR): significantly down-regulate
  expression of MMP3 in cartilage (RT-qPCR): significantly down-regulate
  expression of MMP13 in cartilage (RT-qPCR): significantly down-regulate
ACLT model rats; [6]
  expression of ADAMTS5 in cartilage (RT-qPCR): significantly down-regulate
  expression of IHH in cartilage (RT-qPCR): significantly down-regulate
  expression of MMP3 in cartilage (RT-qPCR): significantly down-regulate
  expression of MMP13 in cartilage (RT-qPCR): significantly down-regulate

## CC(C)C[C@H](N)COc1cncc(-c2ccc3[nH]nc(-c4nc(=O)c5ccncc5[nH]4)c3c2)c1 [LH-037]
CLK1
  IC50: < 10 nM
CLK2; [2]
  IC50: 10 to 50 nM
CLK3; [3]
  IC50: < 10 nM
CLK4
  IC50: 10 to 50 nM
DYRK1A; [4]
  IC50: < 10 nM

## CC(C)CC(=O)Nc1cncc(-c2ccc3[nH]nc(-c4cccnc4)c3c2)c1 [LH-039]
CLK1
  IC50: 50 to 100 nM
CLK2; [2]
  IC50: 10 to 50 nM
CLK3; [3]
  IC50: < 10 nM
CLK4
  IC50: 50 to 100 nM
DYRK1A; [4]
  IC50: 10 to 50 nM

## CC(C)CC(=O)Nc1cncc(-c2ccc3[nH]nc(-c4ccncc4)c3c2)c1 [LH-040]
CLK1
  IC50: 50 to 100 nM
CLK2; [2]
  IC50: < 10 nM
CLK3; [3]
  IC50: 10 to 50 nM
CLK4
  IC50: < 10 nM
DYRK1A; [4]
  IC50: < 10 nM

## CC(C)CC(=O)Nc1cncc(-c2ccc3[nH]nc(-c4ccc5ocnc5c4)c3c2)c1 [LH-041]
CLK1
  IC50: 10 to 50 nM
CLK2; [2]
  IC50: < 10 nM
CLK3; [3]
  IC50: < 10 nM
CLK4
  IC50: 10 to 50 nM
DYRK1A; [4]
  IC50: 10 to 50 nM

## CC(C)CC(=O)Nc1cncc(-c2ccc3[nH]nc(C4=NCc5ccccc5N4)c3c2)c1 [LH-048]
CLK1
  IC50: < 10 nM
CLK2; [2]
  IC50: < 10 nM
CLK3; [3]
  IC50: < 10 nM
CLK4
  IC50: 10 to 50 nM
DYRK1A; [4]
  IC50: < 10 nM

## FC1(F)CCN(Cc2cncc(-c3ccc4[nH]nc(C5=NCc6ccccc6N5)c4c3)c2)C1 [LH-049]
CLK1
  IC50: 50 to 100 nM
CLK2; [2]
  IC50: < 10 nM
CLK3; [3]
  IC50: 10 to 50 nM
CLK4
  IC50: > 100 nM
DYRK1A; [4]
  IC50: < 10 nM

## CC(C)CC(=O)Nc1cncc(-c2ccc3[nH]nc(-c4nc5c(-c6cccc(F)c6)cncc5[nH]4)c3c2)c1 [SM04690]
[1]
  water solubility: poor
